Measured values reported in article PMC6804006, “Synthesis, Biological Activities and Docking Studies of Novel 4-(Arylaminomethyl)benzamide Derivatives as Potential Tyrosine Kinase Inhibitors” (Molecules, 2019).

Columns and labels:
HER-2 = molecular target: T1, HER-2 (Homo sapiens, UniProt P04626); assay: ADP-Glo kinase inhibitory assay, HER-2; format: biochemical; settings: for inhibition at 0.01 µM: read-out: % Inhibition at 10 nM, HER-2
T1 construct: purchased Promega
Description: (§1) We investigated the kinase selectivity of targeted compounds against eight receptor tyrosine kinases including EGFR (epidermal growth factor receptor), HER-2 and HER4 (human epidermal growth factor receptor), IGF1R (insulin like growth factor 1 receptor), InsR (gene insulin receptor), KDR (kinase insert domain receptor), and PDGFRa and PDGFRb (platelet-derived growth factor receptors). The assay was performed using the Kinase-Glo Plus luminescence kinase assay kit (TK-1+ADP-Glo™, Promega, San Diego, CA, USA). It measures kinase activity by quantitating the amount of ATP remaining in solution following a kinase reaction.
(§2) The assay was performed using a Kinase Selectivity Profiling System (TK-1+ADP-Glo™ Assay and TK-2+ADP-Glo™ Assay, Promega), where the kinase activity was measured by quantifying the amount of ADP produced during a kinase reaction. The assay is performed in two steps; firstly, after the kinase reaction, an equal volume of ADP-Glo™ Reagent is added to terminate the kinase reaction and deplete the remaining ATP. Secondly, the Kinase Detection Reagent is added to simultaneously convert ADP to ATP and allow the newly synthesized ATP to be measured using a luciferase/luciferin reaction. The luminescent signal generated is proportional to the ADP concentration produced and is correlated with kinase activity. Our compounds were diluted with kinase buffer (5% DMSO), and 1 μL of the dilution was added to a 5-μL reaction so that the final concentration of DMSO was 1% in all of reactions. All of the enzymatic reactions were conducted at 23 °C for 60 min. The 5-μL reaction mixture contained 1µL of the compound solution, 2µL of the enzyme solution, and 2 µL of kinase substrate. After the enzymatic reaction, 5 µL of ADP-Glo™ Reagent (Promega, USA) was added to each reaction, and the plate was incubated for 40 min at 23 °C. Then, 10 µL of Kinase Detection Reagent (Promega, USA) was added to each reaction, and the plate was incubated for 30 min at 23 °C. Luminescence signal was measured using an Infinite M 200 plate reader (Tecan, Switzerland).
(§3) Kinase activity assays were performed in duplicate at each concentration. The luminescence data were analyzed using the computer software, Magellan™. The difference between luminescence intensities in the absence of Kinase (Lut) and in the presence of Kinase (Luc) was defined as 100% activity (Lut − Luc).

KDR (VEGFR2) = molecular target: T2, KDR (VEGFR2) (Homo sapiens, UniProt P35968); assay: ADP-Glo kinase inhibitory assay, KDR; format: biochemical; settings: for inhibition at 0.01 µM: 10 nM
T2 construct: purchased Promega
T2 sequence (P35968 20-1356): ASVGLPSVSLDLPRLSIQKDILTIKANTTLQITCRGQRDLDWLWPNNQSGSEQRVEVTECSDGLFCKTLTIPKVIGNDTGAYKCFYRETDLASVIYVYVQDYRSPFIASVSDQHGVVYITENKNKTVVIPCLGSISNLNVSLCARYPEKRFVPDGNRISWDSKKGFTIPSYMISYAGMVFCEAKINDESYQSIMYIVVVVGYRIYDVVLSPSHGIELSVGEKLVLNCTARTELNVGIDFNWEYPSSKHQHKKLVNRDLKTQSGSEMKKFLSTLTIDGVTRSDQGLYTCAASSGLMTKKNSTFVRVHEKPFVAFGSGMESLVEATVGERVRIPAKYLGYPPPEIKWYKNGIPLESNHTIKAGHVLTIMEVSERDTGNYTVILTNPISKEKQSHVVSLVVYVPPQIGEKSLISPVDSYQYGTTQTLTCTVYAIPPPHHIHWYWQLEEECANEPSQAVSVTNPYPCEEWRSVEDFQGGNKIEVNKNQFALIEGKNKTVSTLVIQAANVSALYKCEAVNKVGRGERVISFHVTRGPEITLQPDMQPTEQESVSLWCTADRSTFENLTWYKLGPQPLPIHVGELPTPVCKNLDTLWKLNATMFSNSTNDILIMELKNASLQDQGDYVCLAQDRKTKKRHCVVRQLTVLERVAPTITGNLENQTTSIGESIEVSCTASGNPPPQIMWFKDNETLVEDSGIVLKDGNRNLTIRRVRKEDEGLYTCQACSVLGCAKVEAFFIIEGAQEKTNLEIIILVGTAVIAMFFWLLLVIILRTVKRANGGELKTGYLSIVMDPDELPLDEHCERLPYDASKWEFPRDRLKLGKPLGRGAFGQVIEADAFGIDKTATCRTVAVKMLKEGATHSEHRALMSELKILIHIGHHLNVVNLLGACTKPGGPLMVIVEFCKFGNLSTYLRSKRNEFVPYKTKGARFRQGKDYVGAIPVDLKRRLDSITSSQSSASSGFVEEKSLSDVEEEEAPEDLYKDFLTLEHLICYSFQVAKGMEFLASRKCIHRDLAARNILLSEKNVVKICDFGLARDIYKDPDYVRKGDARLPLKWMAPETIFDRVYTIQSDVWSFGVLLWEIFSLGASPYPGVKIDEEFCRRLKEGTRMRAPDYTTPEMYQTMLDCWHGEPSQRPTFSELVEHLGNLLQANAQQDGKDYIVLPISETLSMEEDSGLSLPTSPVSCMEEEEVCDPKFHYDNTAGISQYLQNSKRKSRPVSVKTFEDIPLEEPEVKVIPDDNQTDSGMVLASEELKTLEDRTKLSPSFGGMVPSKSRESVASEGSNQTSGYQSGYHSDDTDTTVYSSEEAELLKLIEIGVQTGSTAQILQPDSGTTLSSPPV
Description: as §1
Vascular endothelial growth factor receptor 2 (VEGFR2), also called kinase insert domain receptor (KDR), is a tyrosine kinase receptor for VEGFs that plays a central role in tumor angiogenesis; therefore, the inhibition of VEGFR2 is a promising therapeutic strategy for inhibiting angiogenesis and tumor growth.
as §2, §3

HER-4 = molecular target: T3, HER-4 (Homo sapiens, UniProt Q15303); assay: ADP-Glo kinase inhibitory assay, HER-4; format: biochemical; settings: for inhibition at 0.01 µM: read-out: % Inhibition at 10 nM, HER-4; for inhibitory activity in relation to HER-4, in words: compared with imatinib
T3 construct: purchased Promega
T3 sequence (Q15303 26-1308): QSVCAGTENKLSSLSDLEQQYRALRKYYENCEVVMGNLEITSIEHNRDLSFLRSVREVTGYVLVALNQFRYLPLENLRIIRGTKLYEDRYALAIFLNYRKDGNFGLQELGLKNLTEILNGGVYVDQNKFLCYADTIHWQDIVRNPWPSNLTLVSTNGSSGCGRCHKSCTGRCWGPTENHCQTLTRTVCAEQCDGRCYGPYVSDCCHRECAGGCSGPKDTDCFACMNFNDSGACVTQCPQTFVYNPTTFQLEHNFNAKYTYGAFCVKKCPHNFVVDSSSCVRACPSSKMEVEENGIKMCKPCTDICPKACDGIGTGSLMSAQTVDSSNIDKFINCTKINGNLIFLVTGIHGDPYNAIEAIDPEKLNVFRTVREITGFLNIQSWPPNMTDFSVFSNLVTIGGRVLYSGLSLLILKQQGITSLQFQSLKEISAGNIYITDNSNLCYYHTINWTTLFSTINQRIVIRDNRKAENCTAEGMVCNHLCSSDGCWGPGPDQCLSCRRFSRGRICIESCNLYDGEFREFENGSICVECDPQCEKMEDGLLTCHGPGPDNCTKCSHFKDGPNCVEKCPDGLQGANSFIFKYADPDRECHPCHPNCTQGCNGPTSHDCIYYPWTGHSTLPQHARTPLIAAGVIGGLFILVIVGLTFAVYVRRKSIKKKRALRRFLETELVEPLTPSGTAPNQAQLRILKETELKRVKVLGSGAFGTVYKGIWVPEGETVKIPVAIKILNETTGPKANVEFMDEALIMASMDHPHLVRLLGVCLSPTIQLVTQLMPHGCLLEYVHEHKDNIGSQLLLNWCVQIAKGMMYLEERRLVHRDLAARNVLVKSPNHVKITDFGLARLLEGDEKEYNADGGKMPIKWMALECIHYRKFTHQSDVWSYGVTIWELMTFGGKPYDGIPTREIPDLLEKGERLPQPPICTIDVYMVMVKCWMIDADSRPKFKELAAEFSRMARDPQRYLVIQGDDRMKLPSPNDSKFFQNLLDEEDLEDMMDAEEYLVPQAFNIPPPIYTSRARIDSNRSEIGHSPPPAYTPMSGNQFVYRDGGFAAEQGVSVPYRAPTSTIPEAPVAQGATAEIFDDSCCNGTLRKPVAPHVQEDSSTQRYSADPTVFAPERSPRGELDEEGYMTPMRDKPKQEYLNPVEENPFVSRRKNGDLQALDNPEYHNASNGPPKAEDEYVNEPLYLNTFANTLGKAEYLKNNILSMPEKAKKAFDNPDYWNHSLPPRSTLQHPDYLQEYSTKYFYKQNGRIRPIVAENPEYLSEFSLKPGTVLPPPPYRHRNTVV
Description: as §1, §2, §3

EGFR = molecular target: T4, EGFR (Homo sapiens, UniProt P00533); assay: ADP-Glo kinase inhibitory assay, EGFR; format: biochemical; settings: for inhibition at 0.01 µM: read-out: % Inhibition at 10 nM, EGFR
T4 construct: purchased Promega
Description: as §1, §2, §3

PDGFRb = molecular target: T5, PDGFRb (Homo sapiens, UniProt P09619); assay: ADP-Glo kinase inhibitory assay, PDGFRb; format: biochemical; settings: for inhibition at 0.01 µM: read-out: % Inhibition at 10 nM, PDGFRb
T5 construct: purchased Promega
T5 sequence (P09619 33-1106): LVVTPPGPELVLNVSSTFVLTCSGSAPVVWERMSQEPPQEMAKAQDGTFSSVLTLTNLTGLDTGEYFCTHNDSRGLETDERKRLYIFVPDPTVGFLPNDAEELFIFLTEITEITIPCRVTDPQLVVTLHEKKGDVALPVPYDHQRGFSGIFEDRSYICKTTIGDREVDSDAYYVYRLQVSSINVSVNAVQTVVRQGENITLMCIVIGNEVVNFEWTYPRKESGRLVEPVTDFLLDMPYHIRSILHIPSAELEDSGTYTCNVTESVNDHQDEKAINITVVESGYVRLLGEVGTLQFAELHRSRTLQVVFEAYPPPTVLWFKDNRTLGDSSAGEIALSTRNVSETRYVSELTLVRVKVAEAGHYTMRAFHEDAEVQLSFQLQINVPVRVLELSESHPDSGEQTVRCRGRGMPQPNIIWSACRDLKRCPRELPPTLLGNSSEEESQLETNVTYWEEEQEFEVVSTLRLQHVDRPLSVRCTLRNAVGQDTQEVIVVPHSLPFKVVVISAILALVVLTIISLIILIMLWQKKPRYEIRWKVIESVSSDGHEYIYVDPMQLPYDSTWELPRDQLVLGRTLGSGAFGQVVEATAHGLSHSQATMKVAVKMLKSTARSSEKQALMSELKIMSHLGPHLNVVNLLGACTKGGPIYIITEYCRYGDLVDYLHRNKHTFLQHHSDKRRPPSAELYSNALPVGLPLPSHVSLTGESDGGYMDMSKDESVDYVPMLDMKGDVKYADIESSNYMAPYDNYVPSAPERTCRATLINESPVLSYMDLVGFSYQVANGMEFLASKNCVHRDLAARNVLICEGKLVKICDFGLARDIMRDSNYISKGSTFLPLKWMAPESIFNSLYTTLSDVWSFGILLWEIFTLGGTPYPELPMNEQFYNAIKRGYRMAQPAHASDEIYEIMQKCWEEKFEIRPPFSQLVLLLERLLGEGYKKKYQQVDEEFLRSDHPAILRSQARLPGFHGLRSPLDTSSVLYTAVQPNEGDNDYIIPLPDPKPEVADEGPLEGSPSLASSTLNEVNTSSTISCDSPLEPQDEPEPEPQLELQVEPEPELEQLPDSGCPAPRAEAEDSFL
Description: as §1, §2, §3

[1] = tested on: K-562 (chronic myelogenous leukemia); assay: MTT anti-proliferative assay, K-562; format: cell-based; settings: Homo sapiens, K562, 48 h, 50% growth inhibition
Description: (§4) Each in vitro experiment was performed at least in triplicate, and the standard deviation of absorbance was less than 10% of the mean. For the in vitro assays, a stock solution (1% DMSO in the appropriate buffer with the tested compound diluted under sonication) was prepared from which several dilutions were made with the appropriate buffer.
(§5) Human cell lines were obtained from the Institute of Cytology, Russian Academy of Sciences. […] Cellular sensitivities to clofarabine and its lipid derivatives were measured with the MTT assay. Cells were plated in triplicate in 96-well plates (10^5 cells/well for suspended cell cultures and 5 × 10^3 cells/well for monolayer cultures); on the same day (suspended cell cultures) or on the following day (monolayer cultures), compounds were added at the appropriate dilutions. Plates were incubated under standard conditions for 48 h. Thereafter, 10 μL of MTT (Sigma) in phosphate-buffered saline (5 mg/mL) was added. The plates were incubated for an additional 4 h, and 150 μL of dimethyl sulfoxide (DMSO) was added to dissolve the formazan crystals. The optical density was read on a HALO MPR-95 Microplate Reader (Dynamica Scientific Ltd., Australia) at 570 nm. The antiproliferative effects were determined as degrees of inhibition of tumor cells (%).

IGF1R = molecular target: T6, IGF1R (Homo sapiens, UniProt P08069); assay: ADP-Glo kinase inhibitory assay, IGF1R; format: biochemical; settings: for inhibition at 0.01 µM: read-out: % Inhibition at 10 nM, IGF1R
T6 construct: purchased Promega
T6 sequence (P08069 31-1367): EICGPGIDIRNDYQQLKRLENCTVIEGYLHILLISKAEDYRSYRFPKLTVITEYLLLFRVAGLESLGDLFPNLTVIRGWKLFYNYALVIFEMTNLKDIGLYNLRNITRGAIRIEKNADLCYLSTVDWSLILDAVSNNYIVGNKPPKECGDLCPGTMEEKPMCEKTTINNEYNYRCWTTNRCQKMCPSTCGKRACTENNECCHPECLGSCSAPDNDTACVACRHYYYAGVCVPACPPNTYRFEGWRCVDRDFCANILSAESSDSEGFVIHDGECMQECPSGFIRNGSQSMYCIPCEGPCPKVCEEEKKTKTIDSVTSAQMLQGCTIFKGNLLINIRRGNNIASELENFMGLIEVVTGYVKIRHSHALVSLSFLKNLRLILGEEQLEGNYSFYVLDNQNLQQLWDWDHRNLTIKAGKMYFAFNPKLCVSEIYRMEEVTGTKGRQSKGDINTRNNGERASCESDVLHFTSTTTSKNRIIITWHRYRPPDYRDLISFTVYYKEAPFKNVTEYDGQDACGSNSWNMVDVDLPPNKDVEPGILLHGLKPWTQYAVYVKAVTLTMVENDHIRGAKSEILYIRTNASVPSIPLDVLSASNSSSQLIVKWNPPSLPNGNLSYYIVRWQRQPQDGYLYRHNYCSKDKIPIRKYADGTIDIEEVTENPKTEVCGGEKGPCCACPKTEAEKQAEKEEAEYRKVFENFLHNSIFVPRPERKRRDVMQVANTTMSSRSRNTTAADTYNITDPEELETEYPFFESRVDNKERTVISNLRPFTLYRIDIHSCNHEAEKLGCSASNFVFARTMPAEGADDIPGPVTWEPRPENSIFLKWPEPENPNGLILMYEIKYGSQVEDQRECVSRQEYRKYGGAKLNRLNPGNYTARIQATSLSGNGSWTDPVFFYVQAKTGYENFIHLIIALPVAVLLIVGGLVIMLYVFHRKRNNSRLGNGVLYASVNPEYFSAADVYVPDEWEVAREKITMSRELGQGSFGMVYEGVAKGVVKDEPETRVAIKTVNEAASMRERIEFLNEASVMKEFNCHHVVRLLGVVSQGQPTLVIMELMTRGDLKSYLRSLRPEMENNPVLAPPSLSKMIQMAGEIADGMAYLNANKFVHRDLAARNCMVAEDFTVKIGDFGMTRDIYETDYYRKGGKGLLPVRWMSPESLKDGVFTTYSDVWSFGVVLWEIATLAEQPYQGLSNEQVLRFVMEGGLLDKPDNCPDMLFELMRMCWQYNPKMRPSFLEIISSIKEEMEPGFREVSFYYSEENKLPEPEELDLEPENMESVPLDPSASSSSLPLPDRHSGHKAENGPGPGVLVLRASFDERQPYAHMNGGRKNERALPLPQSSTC
Description: as §1, §2, §3

[2] = tested on: HL-60 (promyelocytic leukemia); assay: MTT anti-proliferative assay, HL-60; format: cell-based, human; settings: Homo sapiens, HL-60, 48 h, 50% growth inhibition
Description: as §4, §5

[3] = tested on: RPMI 1788 (B lymphocyte, human normal cells); assay: MTT assay on normal cells RPMI 1788; format: cell-based; settings: MTT 48 h
Description: as §4
Human cell lines were obtained from the Institute of Cytology, Russian Academy of Sciences. The cell lines studied were maintained in RPMI 1640 medium (AppliChem, Darmstadt, Germany) supplemented with 20% (HL-60, RPMI 1788) fetal calf serum (HyClone, Cramlington, UK), in DMEM (A 549) and Eagle’s MEM (AppliChem) (MCF7, HeLa) with 10% fetal calf serum (HyClone). Cells were cultivated at 37 °C in a humidified atmosphere of 5% CO2. Cellular sensitivities to clofarabine and its lipid derivatives were measured with the MTT assay. Cells were plated in triplicate in 96-well plates (10^5 cells/well for suspended cell cultures and 5 × 10^3 cells/well for monolayer cultures); on the same day (suspended cell cultures) or on the following day (monolayer cultures), compounds were added at the appropriate dilutions. Plates were incubated under standard conditions for 48 h. Thereafter, 10 μL of MTT (Sigma) in phosphate-buffered saline (5 mg/mL) was added. The plates were incubated for an additional 4 h, and 150 μL of dimethyl sulfoxide (DMSO) was added to dissolve the formazan crystals. The optical density was read on a HALO MPR-95 Microplate Reader (Dynamica Scientific Ltd., Australia) at 570 nm. The antiproliferative effects were determined as degrees of inhibition of tumor cells (%).

InsR = molecular target: T7, InsR (Homo sapiens, UniProt P06213); assay: ADP-Glo kinase inhibitory assay, InsR; format: biochemical; settings: for selectivity for the gene insulin receptor, in words: panel of eight receptor tyrosine kinases; for inhibition at 0.01 µM: read-out: % Inhibition at 10 nM, InsR
T7 construct: purchased Promega
Description: as §1, §2, §3

PDGFRa = molecular target: T8, PDGFRa (Homo sapiens, UniProt P16234); assay: ADP-Glo kinase inhibitory assay, PDGFRa; format: biochemical; settings: for inhibition at 0.01 µM: read-out: % Inhibition at 10 nM, PDGFRa
T8 construct: purchased Promega
Description: as §1, §2, §3

| inhibition at 0.01 µM (HER-2) | inhibition at 0.01 µM (KDR (VEGFR2)) | inhibition at 0.01 µM (HER-4) | inhibition at 0.01 µM (EGFR) | inhibition at 0.01 µM (PDGFRb) | inhibition at 0.01 µM (IGF1R) | melting point | inhibition at 0.01 µM (InsR) | inhibition at 0.01 µM (PDGFRa) | inhibitory activity in relation to HER-4, in words (HER-4; 10 nM) | Molecule | also measured |
| --- | --- | --- | --- | --- | --- | --- | --- | --- | --- | --- | --- |
|  |  |  |  |  |  | 208 to 210 °C |  |  |  | COC(=O)c1ccc(N)c(NC(=O)c2ccc(CNc3cc([N+](=O)[O-])ccc3C)cc2)c1 [Compound 19, Methyl 4-amino-3-[(4-{[(2-methy-5-nitrophenyl)amino]methyl}benzoyl)amino]benzoate] | IC50 [1]: 64 µM; IC50 [2]: > 100 µM; inhibition at 100 µM [3]: 10% |
| 0% | 48% | 57% | 56% | 28% | 18% | 170 to 171 °C | 0% | 77% | comparable to imatinib | CNC(=O)c1cc(Oc2ccc(NCc3ccc(C(=O)Nc4cccc(C(F)(F)F)c4)cc3)cc2)ccn1 [Compound 20, 4-{[(4-{[2-(Methylcarbamoyl)pyridin-4-yl]oxy}phenyl)amino]methyl}-N-[3-(trifluoromethyl)phenyl]benzamide] |  |
|  |  |  |  |  |  | 162 to 164 °C |  |  |  | CCOC(=O)CC[C@H](NC(=O)c1ccc(CNc2ccc(Oc3ccnc(C(=O)NC)c3)cc2)cc1)C(=O)OCC [Compound 21, Diethyl (4-(((4-((2-(methylcarbamoyl)pyridin-4-yl)oxy)phenyl)amino)methyl)benzoyl)glutamate] |  |
| 0% | 2% | 44% | 24% | 0% | 0% | 138 to 141 °C | 0% | 0% | comparable to imatinib | O=C(Nc1cccc(C(F)(F)F)c1)c1ccc(CNc2nccc(-c3cccnc3)n2)cc1 [Compound 24, 4-({[4-(Pyridin-3-yl)pyrimidin-2-yl]amino}methyl)-N-[3-(trifluoromethyl)phenyl]benzamide] |  |
|  |  |  |  |  |  | 175 to 176 °C |  |  |  | Cc1ccc([N+](=O)[O-])cc1NC(=O)c1ccc(CNc2nccc(-c3cccnc3)n2)cc1 [Compound 25, 4-({[4-(Pyridin-3-yl)pyrimidin-2-yl]amino}methyl)-N-{[(2-methyl-5-nitrophenyl) benzoate] |  |
|  |  |  |  |  |  |  |  |  | comparable to imatinib | N-(3-(4-methyl-1H-imidazol-1-yl)-5-(trifluoromethyl)phenyl)-4-(((4-(pyridin-2-yl)pyrimidin-2-yl)amino)methyl)benzamide [Compound 22] | % Inhibition at 10 nM, HER-2 (HER-2; 10 nM): 0%; % Inhibition at 10 nM, KDR (KDR (VEGFR2)): 28%; % Inhibition at 10 nM, HER-4 (HER-4; 10 nM): 49%; % Inhibition at 10 nM, EGFR (EGFR; 10 nM): 21%; % Inhibition at 10 nM, PDGFRb (PDGFRb; 10 nM): 0%; % Inhibition at 10 nM, IGF1R (IGF1R; 10 nM): 0%; % Inhibition at 10 nM, InsR (InsR; 10 nM): 0%; % Inhibition at 10 nM, PDGFRa (PDGFRa; 10 nM): 0% |

The remaining lines, values behind:

| Molecule | inhibition at 0.01 µM (HER-2) | inhibition at 0.01 µM (KDR (VEGFR2)) | inhibition at 0.01 µM (HER-4) | inhibition at 0.01 µM (EGFR) | inhibition at 0.01 µM (PDGFRb) | inhibition at 0.01 µM (IGF1R) | melting point | inhibition at 0.01 µM (InsR) | inhibition at 0.01 µM (PDGFRa) | inhibitory activity in relation to HER-4, in words (HER-4; 10 nM) | also measured |
| --- | --- | --- | --- | --- | --- | --- | --- | --- | --- | --- | --- |
| CCOC(=O)CCC(NC(=O)c1ccc(CNc2cc(-n3cnc(C)c3)cc(C(F)(F)F)c2)cc1)C(=O)OCC (stereo not drawn) [Compound 14, Diethyl(4-(((3-(4-methyl-1H-imidazol-1-yl)-5-(trifluoromethyl)phenyl)amino)methyl)benzoyl)glutamate] | 0% | 0% | 0% | 0% | 0% | 0% | 125 to 127 °C | 23% | 0% |  | IC50 [1]: 50 µM; IC50 [2]: 45 µM; inhibition at 100 µM [3]: 10.4%; selectivity for the gene insulin receptor, in words (InsR; 10 nM): high selectivity |
| CCOC(=O)CC[C@H](NC(=O)c1ccc(CNc2cc([N+](=O)[O-])ccc2C)cc1)C(=O)OCC [Compound 16, Diethyl (4-(((2-methyl-5-nitrophenyl)amino)methyl)benzoyl)glutamate] |  |  |  |  |  |  | 127 to 129 °C |  |  |  |  |
| CNC(=O)c1cc(Oc2ccc(NC(=O)c3ccc(CNc4cc([N+](=O)[O-])ccc4C)cc3)cc2)ccn1 [Compound 17, 4-{[(2-Methyl-5-nitrophenyl)amino]methyl}-N-(4-{[2-(methylcarbamoyl)pyridin-4-yl]oxy}phenyl) benzoate] | 0% | 0% | 0% | 0% | 0% | 0% | 231 to 233 °C | 49% | 0% |  | selectivity for the gene insulin receptor, in words (InsR; 10 nM): high selectivity |
| Cc1ccc([N+](=O)[O-])cc1NCc1ccc(C(=O)Nc2cccc(C(F)(F)F)c2)cc1 [Compound 18, 4-{[(2-Methyl-5-nitrophenyl)amino]methyl}-N-[3-(trifluoromethyl)phenyl]benzamide] | 14% | 24% | 56% | 0% | 13% | 0% | 169 to 171 °C | 0% | 67% | comparable to imatinib |  |
| Cc1ccc(NC(=O)c2ccc(CN3CCN(C)CC3)cc2)cc1Nc1nccc(-c2cccnc2)n1 [Imatinib, reference compound] | 0% | 0% | 42% | 0% | 75% | 0% |  | 36% | 56% |  | inhibition at 100 µM [3]: 13.4% |
